{"source": "patent US4113858A", "about": "“Novel compounds, compositions and methods of their use” (St. Luke's Hospital, priority 1976, dated 1978)", "key": {"Guinea Pigs [1]": {"test_system": "Guinea Pigs"}, "Guinea Pigs [2]": {"test_system": "Guinea Pigs", "experiment": "Non-encephalitogenic properties of Compound V, disease index (Table II)", "type": "in vivo", "source_text": "A number of guinea pigs are divided into equal groups I, II, III, IV, V, VI and VII. Each of groups I, II, III and IV are given a single subcutaneous administration of the compound (V) (formula: H -- Phe -- Ser -- Trp -- Gln -- Lys )4 Gly -- OH) prepared according to Example 1. supra. The dose administered, in Complete Freund's adjuvant and the disease index (number of animals showing disease symptons/number tested) obtained after 30 and 120 days, respectfully, are given in Table II below. Groups, V, VI and VII serve as controls. Group V received a single administration of the myelin basic protein (BP), group VI received a single administration of peptide E (E), the encephalitogenic region derived from the encephalitogenic basic protein. Group VII received a single administration of Complete Freund's adjuvant alone.\nThe figures show the number of diseased guinea pigs per number tested. The disease index for experimental allergic encephalomyelitis (EAE) is reported in terms of clinical and histophathological criteria by day 30 following sensitization."}, "Guinea Pigs [3]": {"test_system": "Guinea Pigs", "experiment": "Specificity of delayed type skin hypersensitivity response (Table III)", "type": "in vivo", "method": "Guinea pigs are sensitized (10 animals/group) with 500 μg each of compound (V) (prepared according to Example 1, supra.), myelin basic protein (BP), the alpha -1 component of calf skin (α1 -- calf) and the alpha -1 component of guinea pig collagen (α1 -- g.p.), emulsified in complete Freund's adjuvant. At day 11 after sensitization, the animals were skin tested with various doses of the specific antigens dissolved in saline. Positive responses are indicated by erythema at the skin test site. A control group is administered saline."}, "Guinea Pigs [4]": {"test_system": "Guinea Pigs", "experiment": "Challenge with Compound V in Freund's complete adjuvant (Table VII, groups 1-3)", "type": "in vivo", "details": "no treatment"}, "Guinea Pigs [5]": {"test_system": "Guinea Pigs", "experiment": "Delayed type skin hypersensitivity response (Table IV)", "type": "in vivo", "details": "carrier CFA, IFA or saline; response dose related", "source_text": "Guinea pigs are sensitized (10 animals/group) with varying doses of the compound (V) (prepared according to Example 1, supra.) administered subcutaneously in Complete Freund's adjuvant, incomplete Freund's adjuvant and saline. At various times following this administration, the animals were skin tested with various doses of compound (V) in saline.\nThe extent of the DTH response is dose related. Compound (V) induces DTH response regardless of whether the carrier is Complete Freund's adjuvant (CFA), incomplete Freund's adjuvant (IFA) or physiological saline (saline). The values shown are the average skin response of 10 animals in each group. The numbers shown are measurements of the cross-sectional diameters of the erythematous area recorded at 24 hours following the skin test."}, "[6]": {"details": "Group 9: challenge 150 μg BP, 4.0 mg daily, started second day after onset of hind leg paralysis"}, "[7]": {"details": "Group 1: challenge 25 μg in FCA"}, "[8]": {"details": "Group 2: challenge 100 μg in FCA"}, "[9]": {"details": "Group 3: challenge 5,000 μg in FCA"}}, "note": "Like-named read-outs stand apart in the source and are kept apart here. Ends that are not written are not given here.", "data": [{"sequence": "FSWQKFSWQKFSWQKFSWQKG [Compound V, H -- Phe -- Ser -- Trp -- Gln -- Lys]4 Gly -- OH]", "values": [{"measurement": "Clinical EAE", "setting": "Guinea Pigs [1]; Group 4: challenge 100 μg BP in FCA, 1 mg daily s.c. in FIA day 8 through day 17", "result": "2/4"}, {"measurement": "Clinical EAE", "setting": "Guinea Pigs [1]; Group 4: challenge 100 μg BP in FCA, 1 mg daily s.c. in FIA day 8 through day 17, listed as compound (V)", "result": "significantly reduced the incidence of disease"}, {"measurement": "Reversal clinical EAE", "setting": "Guinea Pigs [1]; Group 4: challenge 100 μg BP, 1 mg daily s.c. in FIA day 8 through day 17", "result": "2/4"}, {"measurement": "Histological EAE", "setting": "Guinea Pigs [1]; Group 4: challenge 100 μg BP, 1 mg daily s.c. in FIA day 8 through day 17, day 32", "result": "2/4"}, {"measurement": "Histological EAE", "setting": "Guinea Pigs [1]; Group 6: challenge 150 μg BP, 2.5 mg daily for 10 days from hind leg paralysis, day 32", "result": "2/5"}, {"measurement": "Histological EAE", "setting": "Guinea Pigs [1]; Group 6: challenge 150 μg BP, 2.5 mg daily for 10 days from hind leg paralysis, day 32, listed as compound (V)", "result": "2 out of 5"}, {"measurement": "Reversal clinical EAE", "setting": "Guinea Pigs [1]; Group 6: challenge 150 μg BP, 2.5 mg daily for 10 days from the day hind leg paralysis is observed", "result": "5/5"}, {"measurement": "Clinical EAE", "setting": "Guinea Pigs [1]; Group 6: challenge 150 μg BP, 2.5 mg daily s.c. in FIA for 10 days from the day hind leg paralysis is observed", "result": "5/5"}, {"measurement": "guinea pigs that died without evidence of improvement", "setting": "Guinea Pigs [1]; Group 9, after the second treatment", "result": "one of seven"}, {"measurement": "Clinical EAE", "setting": "Guinea Pigs [1]; [6]", "result": "7/7"}, {"measurement": "Histological EAE", "setting": "Guinea Pigs [1]; [6]", "result": "4/7"}, {"measurement": "Reversal clinical EAE", "setting": "Guinea Pigs [1]; [6]", "result": "6/7"}, {"measurement": "Disease Index", "setting": "Guinea Pigs [2]; Day 30, 0.005 mg antigen in CFA, single s.c.", "result": "0/10"}, {"measurement": "Disease Index", "setting": "Guinea Pigs [2]; Day 30, 0.025 mg antigen in CFA, single administration", "result": "0/15"}, {"measurement": "Disease Index", "setting": "Guinea Pigs [2]; Day 30, 0.100 mg antigen in CFA, single s.c.", "result": "0/20"}, {"measurement": "Disease Index", "setting": "Guinea Pigs [2]; Day 30, 0.500 mg antigen in CFA, single s.c., diseased/tested", "result": "0/10"}, {"measurement": "Disease Index", "setting": "Guinea Pigs [2]; Day 120, 0.100 mg antigen in CFA", "result": "0/10"}, {"measurement": "Disease Index", "setting": "Guinea Pigs [2]; Day 120, 0.500 mg antigen in CFA", "result": "0/10"}, {"measurement": "delayed skin response elicited", "setting": "Guinea Pigs [3]; in animals sensitized with compound V or BP", "result": "positive delayed skin responses"}, {"measurement": "delayed skin response elicited", "setting": "Guinea Pigs [3]; in animals sensitized with the α1-calf or α1-g.p. component of skin collagen", "result": "negative skin responses"}, {"measurement": "Clinical EAE", "setting": "Guinea Pigs [4]; [7]", "result": "0/15"}, {"measurement": "Histological EAE", "setting": "Guinea Pigs [4]; [7]", "result": "0/15"}, {"measurement": "Clinical EAE", "setting": "Guinea Pigs [4]; [8]", "result": "0/10"}, {"measurement": "Histological EAE", "setting": "Guinea Pigs [4]; [8]", "result": "0/15"}, {"measurement": "Clinical EAE", "setting": "Guinea Pigs [4]; [9]", "result": "0/10"}, {"measurement": "Histological EAE", "setting": "Guinea Pigs [4]; [9]", "result": "0/10"}, {"measurement": "antigenicity / induction of delayed type hypersensitivity (DTH)", "setting": "Guinea Pigs [5]", "result": "antigenic and induces delayed type hypersensitivity (DTH)"}]}]}
